Measured values published in paper PMC12562637 (Genes, 2025).

What was measured:
[1] = cited from earlier work
[2] = Bleeding events (ISTH definition) in NVAF patients receiving apixaban; association by odds ratio; format: in vivo, human
Protocol: The severity of bleeding was evaluated based on the definition provided by the International Society on Thrombosis and Hemostasis. In brief, events leading to a reduction in hemoglobin levels by at least 2 g/dL, fatal bleeding, or events occurring in critical body locations were considered major bleeding events. Events that required hospitalization, medical or surgical intervention, or a change in antithrombotic treatment were considered clinically relevant non-major. Any acute bleeding event not meeting the criteria for major or clinically relevant non-major bleeding was classified as a minor bleeding episode.
In all enrolled patients, allele-specific real-time PCR was used to identify polymorphic variants of ABCB1 (rs1045642 3435C>T, rs2032582 2677G>T/A, rs1128503 1236C>T), CYP3A4*22 (rs35599367), and CYP3A5*3 (rs776746, 6986A>G). Commercial kits (OOO Syntol, Moscow, Russia) were employed on a CFX96 Touch™ Real-Time PCR Detection System (Bio-Rad, Hercules, CA, USA).
The study data were subjected to statistical processing using both parametric and nonparametric methods. Statistical analyses were performed with the standard software package StatSoft Statistica 10.0 (Dell, Round Rock, TX, USA). Quantitative variables were assessed for normality using the Kolmogorov–Smirnov test (for sample sizes > 50), as well as by evaluating skewness and kurtosis. For quantitative variables with a normal distribution, the data were organized into variational series, and arithmetic means (M) with standard deviations (SD) were calculated. Comparisons of means in normally distributed quantitative datasets were performed using Student’s t-test, with obtained values evaluated against critical thresholds. For categorical variables, differences in frequency distributions were assessed using the χ^2 test, and Fisher’s exact test was applied when the number of observations was small. To quantify the effect of genetic markers on complication occurrence, odds ratios (ORs) with 95% confidence intervals (CIs) were calculated. Statistical significance for all analyses was defined at p < 0.05. For genetic analyses, multiple-testing correction was performed using the Benjamini–Hochberg false discovery rate (FDR) procedure.

SMILES	Interindividual variability in exposure [1]	Intraindividual variability in exposure [1]	Bleeding event in the context of surgery ([2]; both, human, in vivo)	Epistaxis ([2]; both, human, in vivo)	Gastrointestinal bleeding ([2]; both, human, in vivo)	Hematomas and ecchymoses ([2]; both, human, in vivo)	Peptic ulcer exacerbation ([2]; both, human, in vivo)	Uterine bleeding ([2]; both, human, in vivo)	OR of bleeding events by sex ([2]; both, human, in vivo, 1.95 years)	Association with incidence of bleeding events ([2]; simvastatin (n = 8) as co-medication with apixaban)
COc1ccc(-n2nc(C(N)=O)c3c2C(=O)N(c2ccc(N4CCCCC4=O)cc2)CC3)cc1 [apixaban]	~30%	approximately 20%	1 case	31 cases	3 cases	3 cases	1 case	1 case	1.119	
CCC(C)(C)C(=O)O[C@H]1C[C@@H](C)C=C2C=C[C@H](C)[C@H](CC[C@@H]3C[C@@H](O)CC(=O)O3)[C@H]21 [simvastatin]										did not show an increase in incidence of bleeding events
